From patent US20080286349A1, “SYSTEMS, DEVICES, AND METHODS FOR PASSIVE TRANSDERMAL DELIVERY OF ACTIVE AGENTS TO A BIOLOGICAL INTERFACE” (priority 2007, published 2008)
Counter-ions that a name gives are not always drawn. Each block holds one molecule with its values, some of them ahead of it.

How the values were obtained:
[1] = Membrane potential measurement across skin in H-shaped Franz cell; ion mobility relative to chloride; assay type: physicochemical, mouse; settings: Cl− = 1
From the text: The electric potential difference shown here is between the outside and the inside of the skin. The “+/−” notation is opposite to that shown in Equation 12. […] These values have been used to make calculations.

[2] = Computed membrane potential and ion flux (Eq. 11 Goldman equation, Eq. 12); settings: relative to Cl−
From the text: Further, it is necessary to linearly approximate the concentration gradient or the electric potential gradient to solve equation 9. […] The potential difference across the skin has been considered for a single component system. […] Thus, a film potential can be calculated provided that the ion mobility (omega) and concentration (c) within the skin are known. The ion transport speed can then be found from the calculated film potential.

[3] = Delivery of aqueous drug solutions through skin in Franz cell (amount over time, flux); settings: for experimental Flux J: 1.0% Diclofenac
From the text: An H-shaped Franz cell (FIG. 7) was used to evaluate the theory described herein. As shown, the Franz cell 28 includes a donor chamber 30a and a receiver chamber 30b. The donor chamber 30a contains an ionic active agent, which permeates through a membrane 32 to reach the receiver chamber 30b. A working electrode 34a was inserted in the donor chamber 30a, while a counter electrode 34b (i.e., reference electrode) was inserted in the receptor chamber 30b. It is possible to measure the electrical potential difference induced by the ionic diffusion/permeation and the concentration gradient thus established. […]

[4] = Example 1: Procaterol HCl solutions, Franz cell at 32° C.; assay type: in vitro ADME, mouse; set-up: unit not given here
Experimental: Typically, 17 ml of phosphate buffered saline (PBS, sold by Wako Pure Chemical Industries) was injected into the receptor cell, and a 10 mm stirring bar was used to agitate the solution during the test. The Franz cell was placed in an incubator (made by ESPEC, model LH-113) with the temperature set to 32° C. and the humidity set to 70%. Samples were typically extracted from the cell at predetermined times using a 200 μl Gilson Pipetman. 200 μl of PBS was then added to the cell after each sampling operation.
For measuring the active agent (e.g., Procaterol cation) permeated, a standard solution with known concentration can be prepared and compared with the concentration measured. Using Procaterol HCl as an example, 50 mg of Procaterol HCl (97.25% anhydrous) was accurately measured out, and then added to water to form 50 ml of solution (“Procaterol concentrate liquid”). The standard concentrate was then diluted (“Procaterol standard solution”) and used as a mobile phase for high performance (or pressure) liquid chromatography (HPLC). The Procaterol concentrate liquid was sealed in a light shielding bottle and stored in a refrigerator. 10 μl of each test sample and 10 μl of the standard solution was measured using HPLC, and Procaterol peak areas At (test samples) and As (standard solution) were determined for each sample. Procaterol HCl masses were then found for each test sample using the following equation: […]
In Example 1, before testing the delivery device 10, sixteen tests were performed at four different agent concentrations (four tests (#1, #2, #3, and #4) for each concentration of active agent) using Procaterol HCl in order to investigate the transport of Procaterol cation into and through skin along a concentration gradient. A Franz cell was used at 32° C. using hairless mouse skin as a permeable membrane. 720 corresponds to the average delivery of a 5 wt % Procaterol-HCl concentration, 722 corresponds to the average delivery of a 2.5 wt % Procaterol-HCl concentration, 724 corresponds to the average delivery of a 1 wt % Procaterol-HCl concentration, and 726 corresponds to the average delivery of a 0.5 wt % Procaterol-HCl concentration. […] It can be seen that the amount of Procaterol delivered through the skin increases over time. Further, it can also be seen that the amount of Procaterol delivered increases with increased Procaterol concentration. To deliver a medically effective amount of Procaterol through the skin, the concentration of the Procaterol solution must be equal to or greater than a certain threshold concentration. A sufficient amount of Procaterol dissolved in water was used in this experiment, thus leading to a rather large Procaterol delivery speed. It is therefore possible to deliver Procaterol through the skin, provided that the solution exists in proximity to the surface of the skin.

SMILES: O=C1O[C@H]([C@@H](O)CO)C(O)=C1O[C@H]1O[C@H](CO)[C@@H](O)[C@H](O)[C@H]1O [AA2G, L-Ascorbic acid 2-Glucoside]
Mobility of ion (AA2G− compared to chloride ions) ([1]; AA2G 300 mM (0.296 mol dm^−3 donor)): 0.83
Mobility ratio w ([2]; AA2G 0.000059 mol cm^3): 0.1
Mobility ratio w ([2]; AA2G 0.000148 mol cm^3): 0.4

SMILES: O=C([O-])Cc1ccccc1Nc1c(Cl)cccc1Cl.[Na+] [Diclofenac, monosodium 2-(2-(2,6-dichlorophenylamino)phenyl)acetate]
Mobility of ion (Diclofenac anion compared to chloride ions) ([1]; 0.032 mol dm^−3 sodium Diclofenac donor): 4.6
Mobility ratio w ([2]; Diclofenac 0.0000016 mol cm^−3): 4.6
Mobility ratio w ([2]; Diclofenac 0.0000032 mol cm^−3 (last line)): 4.6
Mobility ratio w ([2]; Diclofenac 0.0000032 mol cm^−3 (third line)): 4.6
Mobility ratio w ([2]; Diclofenac 0.000016 mol cm^−3): 4.6
Flux ([3]; 0.003 M sodium Diclofenac): 1.30 μg h^−1 cm^−2
Amount of Diclofenac delivered ([3]; 0.003 M, time 0 hr): 0.0
Amount of Diclofenac delivered ([3]; 0.003 M, time 1 hr): 0.0
Amount of Diclofenac delivered ([3]; 0.003 M, time 3 hr): 2.0
Amount of Diclofenac delivered ([3]; 0.003 M, time 5 hr): 5.6
Amount of Diclofenac delivered ([3]; 0.003 M, time 24 hr): 31.1
Flux ([3]; 0.016 M sodium Diclofenac): 2.21 μg h^−1 cm^−2
Amount of Diclofenac delivered ([3]; 0.016 M, time 0 hr): 0.0
Amount of Diclofenac delivered ([3]; 0.016 M, time 1 hr): 0.0
Amount of Diclofenac delivered ([3]; 0.016 M, time 3 hr): 3.6
Amount of Diclofenac delivered ([3]; 0.016 M, time 5 hr): 9.8
Amount of Diclofenac delivered ([3]; 0.016 M, time 24 hr): 53.1
Flux ([3]; 0.031 M sodium Diclofenac): 4.62 μg h^−1 cm^−2
Amount of Diclofenac delivered ([3]; 0.031 M, time 0 hr): 0.0
Amount of Diclofenac delivered ([3]; 0.031 M, time 1 hr): 0.3
Amount of Diclofenac delivered ([3]; 0.031 M, time 3 hr): 5.4
Amount of Diclofenac delivered ([3]; 0.031 M, time 5 hr): 12.1
Amount of Diclofenac delivered ([3]; 0.031 M, time 24 hr): 110.9
experimental Flux J ([3]; KCl conc 0 %): 4.3 μg h^−1 cm^−2
experimental Flux J ([3]; KCl conc 0.1 %): 6.2 μg h^−1 cm^−2
experimental Flux J ([3]; KCl conc 0.5 %): 7.0 μg h^−1 cm^−2

Mobility of ion (Procaterol cation with respect to chloride ions) ([1]; […] Procaterol HCl donor): 0.13
Total transmission amount, Ave. ([4]; Test ID 720 (5.0%), 0 hrs.): 0.0
Total transmission amount, single samples #1-#4 ([4]; Test ID 720 (5.0%), 0 hrs.): 0.0
Total transmission amount, Ave. ([4]; Test ID 720 (5.0%), 1 hr.): 0.7
Total transmission amount, Ave. ([4]; Test ID 720 (5.0%), 3 hrs.): 5.3
Total transmission amount, Ave. ([4]; Test ID 720 (5.0%), 5 hrs.): 10.4
Total transmission amount, Ave. ([4]; Test ID 720 (5.0%), 8 hrs.): 16.3
Total transmission amount, Ave. ([4]; Test ID 722 (2.5%), 0 hrs.): 0.0
Total transmission amount, single samples #1-#4 ([4]; Test ID 722 (2.5%), 0 hrs.): 0.0
Total transmission amount, Ave. ([4]; Test ID 722 (2.5%), 1 hr.): 0.4
Total transmission amount, Ave. ([4]; Test ID 722 (2.5%), 3 hrs.): 1.7
Total transmission amount, Ave. ([4]; Test ID 722 (2.5%), 5 hrs.): 2.8
Total transmission amount, Ave. ([4]; Test ID 722 (2.5%), 8 hrs.): 4.1
Total transmission amount, Ave. ([4]; Test ID 724 (1.0%), 0 hrs.): 0.0
Total transmission amount, single samples #1-#4 ([4]; Test ID 724 (1.0%), 0 hrs.): 0.0
Total transmission amount, Ave. ([4]; Test ID 724 (1.0%), 1 hr.): 0.0
Total transmission amount, single samples #1-#4 ([4]; Test ID 724 (1.0%), 1 hr.): 0.0
Total transmission amount, Ave. ([4]; Test ID 724 (1.0%), 3 hrs.): 0.2
Total transmission amount, Ave. ([4]; Test ID 724 (1.0%), 5 hrs.): 0.4
Total transmission amount, Ave. ([4]; Test ID 724 (1.0%), 8 hrs.): 0.7
Total transmission amount, Ave. ([4]; Test ID 726 (0.5%), 0 hrs.): 0.0
Total transmission amount, single samples #1-#4 ([4]; Test ID 726 (0.5%), 0 hrs.): 0.0
Total transmission amount, Ave. ([4]; Test ID 726 (0.5%), 1 hr.): 0.0
Total transmission amount, single samples #1-#4 ([4]; Test ID 726 (0.5%), 1 hr.): 0.0
Total transmission amount, Ave. ([4]; Test ID 726 (0.5%), 3 hrs.): 0.2
Total transmission amount, Ave. ([4]; Test ID 726 (0.5%), 5 hrs.): 0.5
Total transmission amount, Ave. ([4]; Test ID 726 (0.5%), 8 hrs.): 0.8
Mobility ratio w ([2]; Procaterol 0.000015 mol cm^−3): 0.13
Mobility ratio w ([2]; Procaterol 0.00003 mol cm^−3): 0.13
Mobility ratio w ([2]; Procaterol 0.00006 mol cm^−3): 0.13
Flux ([3]; 0.015 M aqueous Procaterol): 0 mg h^−1 cm^−2
Amount of aqueous Procaterol delivered ([3]; 0.015 M, time 0 hr): 0
Amount of aqueous Procaterol delivered ([3]; 0.015 M, time 2 hr): 0
Amount of aqueous Procaterol delivered ([3]; 0.015 M, time 3 hr): 0
Amount of aqueous Procaterol delivered ([3]; 0.015 M, time 5 hr): 0
Flux ([3]; 0.03 M aqueous Procaterol): 0.024 mg h^−1 cm^−2
Amount of aqueous Procaterol delivered ([3]; 0.03 M, time 0 hr): 0
Amount of aqueous Procaterol delivered ([3]; 0.03 M, time 2 hr): 0
Amount of aqueous Procaterol delivered ([3]; 0.03 M, time 3 hr): 0
Amount of aqueous Procaterol delivered ([3]; 0.03 M, time 5 hr): 0.12
Flux ([3]; 0.06 M aqueous Procaterol): 0.082 mg h^−1 cm^−2
Amount of aqueous Procaterol delivered ([3]; 0.06 M, time 0 hr): 0
Amount of aqueous Procaterol delivered ([3]; 0.06 M, time 2 hr): 0.13
Amount of aqueous Procaterol delivered ([3]; 0.06 M, time 3 hr): 0.22
Amount of aqueous Procaterol delivered ([3]; 0.06 M, time 5 hr): 0.41
Flux ([3]; […] aqueous Procaterol): 0.84 mg h^−1 cm^−2
Amount of aqueous Procaterol delivered ([3]; […], time 0 hr): 0
Amount of aqueous Procaterol delivered ([3]; […], time 2 hr): 1.53
Amount of aqueous Procaterol delivered ([3]; […], time 3 hr): 2.47
Amount of aqueous Procaterol delivered ([3]; […], time 5 hr): 4.20
SMILES: CCC(NC(C)C)C(O)c1ccc(O)c2[nH]c(=O)ccc12 (stereo not shown) [Procaterol HCl, 8-hydroxy-5-[1-hydroxy-2-[(1-methylethyl)amino]butyl]-2(1H)-quinolinone]
